Values joined by “and” are separate entries in the source; they are usually repeats but may differ in a detail not shown here. Equal values may be shown once.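 Test compounds were applied to cells in 96-well plates for 48 hours at 5 doses. GI50 marks 50% less growth. TGI is the concentration that stops growth completely.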 Active and inactive are the calls of the source. Cut-off read from the data, not from the text of the source: active = GI50 below about 0.43 µM; inactive = the rest.
Assays:
Assay in all cases: NCI tumour cell line growth inhibition, 48 h
[1] = tested on: 786-0 renal
[2] = tested on: A498 renal
[3] = tested on: A549 NSCLC
[4] = tested on: ACHN renal
[5] = tested on: CCRF-CEM leukemia
[6] = tested on: COLO 205 colon
[7] = tested on: DMS 114 small cell lung
[8] = tested on: DMS 273 small cell lung
[9] = tested on: EKVX NSCLC
[10] = tested on: HCC-2998 colon
[11] = tested on: HCT-116 colon
[12] = tested on: HCT-15 colon
[13] = tested on: HL-60(TB) leukemia
[14] = tested on: HOP-62 NSCLC
[15] = tested on: HT29 colon
[16] = tested on: IGROV1 ovarian
[17] = tested on: K-562 leukemia
[18] = tested on: KM12 colon
[19] = tested on: KM20L2 colon
[20] = tested on: LXFL 529 NSCLC
[21] = tested on: M14 melanoma
[22] = tested on: M19-MEL melanoma
[23] = tested on: MALME-3M melanoma
[24] = tested on: MOLT-4 leukemia
[25] = tested on: NCI-H226 lung
[26] = tested on: NCI-H23 lung
[27] = tested on: NCI-H460 lung
[28] = tested on: NCI-H522 lung
[29] = tested on: OVCAR-3 ovarian
[30] = tested on: OVCAR-4 ovarian
[31] = tested on: OVCAR-5 ovarian
[32] = tested on: OVCAR-8 ovarian
[33] = tested on: RPMI-8226 leukemia
[34] = tested on: RXF 393 renal
[35] = tested on: SF-268 CNS
[36] = tested on: SF-295 CNS
[37] = tested on: SF-539 CNS
[38] = tested on: SK-MEL-2 melanoma
[39] = tested on: SK-MEL-28 melanoma
[40] = tested on: SK-OV-3 ovarian
[41] = tested on: SN12C renal
[42] = tested on: SNB-19 CNS
[43] = tested on: SNB-75 CNS
[44] = tested on: SR leukemia
[45] = tested on: SW-620 colon
[46] = tested on: TK-10 renal
[47] = tested on: U251 CNS
[48] = tested on: UACC-257 melanoma
[49] = tested on: UACC-62 melanoma
[50] = tested on: UO-31 renal
[51] = tested on: CAKI-1 renal
[52] = tested on: DU-145 prostate
[53] = tested on: HOP-92 NSCLC
[54] = tested on: HS 578T breast
[55] = tested on: LOX IMVI melanoma
[56] = tested on: MDA-MB-231 breast
[57] = tested on: MDA-MB-435
[58] = tested on: MDA-N
[59] = tested on: NCI/ADR-RES ovarian
[60] = tested on: PC-3 prostate
[61] = tested on: SK-MEL-5 melanoma
[62] = tested on: SNB-78 CNS
[63] = tested on: T-47D breast
[64] = tested on: DLD-1 colon

Compound: O=C1C=C(Nc2ccc(Br)cc2)c2ccccc2C1=O
- TGI [1]: 28.3 µM
- TGI [2]: 31 µM
- TGI [3]: 32.8 µM
- TGI [4]: 16.2 µM
- TGI [5]: 32.3 µM
- TGI [6]: 31 µM
- TGI [7]: 18 µM
- TGI [8]: 25.7 µM
- TGI [9]: 32.5 µM
- TGI [10]: 28.5 µM
- TGI [11]: 26.5 µM
- TGI [12]: 18.9 µM
- TGI [13]: 22.4 µM
- TGI [14]: 30.7 µM
- TGI [15]: 34 µM
- TGI [16]: 33.2 µM
- TGI [17]: 34 µM
- TGI [18]: 29.6 µM
- TGI [19]: 39.3 µM
- TGI [20]: 25.4 µM
- TGI [21]: 28.8 µM
- TGI [22]: 3.29 µM
- TGI [23]: 28.7 µM
- TGI [24]: 30.5 µM
- TGI [25]: 38.2 µM
- TGI [26]: 15.3 µM
- TGI [27]: 23.8 µM
- TGI [28]: 25.5 µM
- TGI [29]: 19.7 µM
- TGI [30]: 6.13 µM
- TGI [31]: 35.3 µM
- TGI [32]: 29.3 µM
- TGI [33]: 24.9 µM
- TGI [34]: 30.6 µM
- TGI [35]: 27.6 µM
- TGI [36]: 29.8 µM
- TGI [37]: 30.3 µM
- TGI [38]: 30.1 µM
- TGI [39]: 31.3 µM
- TGI [40]: 31 µM
- TGI [41]: 29.6 µM
- TGI [42]: 29.2 µM
- TGI [43]: 23.3 µM
- TGI [44]: 16.5 µM
- TGI [45]: 27.2 µM
- TGI [46]: 33.8 µM
- TGI [47]: 16 µM
- TGI [48]: 26.5 µM
- TGI [49]: 15.3 µM
- TGI [50]: 29.6 µM

Compound: CC(=O)NC1C(OCc2ccccc2)OC(CO)C(O)C1OC(C)C(=O)NC(C)C(=O)N[C@@H](CCC(=O)OCCCNC1c2ccccc2Nc2cccc([N+](=O)[O-])c21)C(N)=O (stereo partly drawn)
- GI50 [1]: 0.00674 µM
- TGI [1]: 0.0306 µM
- TGI [2]: 0.02 µM
- GI50 [3]: 0.0306 µM
- TGI [4]: 0.0465 µM and < 0.0407 µM
- GI50 [51]: 0.028 µM
- TGI [51]: 0.102 µM and 0.0163 µM
- GI50 [5]: 0.0444 µM and 0.0249 µM
- TGI [5]: 0.422 µM and 1.2 µM
- GI50 [6]: 0.0134 µM
- TGI [6]: 0.0274 µM
- TGI [7]: 0.0215 µM
- TGI [8]: < 0.0106 µM
- TGI [52]: 0.0799 µM
- TGI [9]: 0.0334 µM and 0.0356 µM
- GI50 [10]: 0.0164 µM
- TGI [10]: 0.0322 µM
- GI50 [11]: 0.00301 µM
- TGI [11]: 0.0242 µM and < 0.0116 µM
- TGI [12]: 0.0245 µM
- GI50 [13]: 0.0211 µM
- TGI [13]: 0.125 µM and 0.0398 µM
- GI50 [14]: 0.0234 µM
- GI50 [53]: 0.0159 µM
- TGI [53]: 0.0434 µM and 0.027 µM
- TGI [54]: 0.0725 µM
- GI50 [15]: 0.00583 µM
- TGI [15]: 0.0295 µM and 0.0102 µM
- GI50 [16]: 0.0514 µM
- TGI [16]: 0.267 µM and 0.0861 µM
- TGI [17]: 0.0141 µM
- GI50 [18]: 0.0211 µM
- TGI [18]: 0.0516 µM and < 0.0107 µM
- GI50 [55]: 0.181 µM
- TGI [55]: 0.441 µM and 0.103 µM
- TGI [20]: < 0.0232 µM
- GI50 [21]: 0.0201 µM
- TGI [21]: 0.0485 µM
- GI50 [23]: 0.0157 µM
- TGI [23]: 0.0324 µM
- TGI [56]: 0.074 µM
- TGI [57]: 0.0309 µM
- TGI [58]: 0.0317 µM
- GI50 [24]: 0.0406 µM
- TGI [24]: 0.425 µM and 0.0486 µM
- GI50 [25]: 0.0147 µM
- TGI [25]: 0.0455 µM and < 0.0151 µM
- TGI [26]: 0.0295 µM
- GI50 [27]: 0.00138 µM
- TGI [27]: 0.014 µM and 0.013 µM
- GI50 [28]: 0.0138 µM
- TGI [28]: 0.0405 µM and < 0.0151 µM
- TGI [59]: 0.0545 µM
- GI50 [29]: 0.0272 µM
- TGI [29]: 0.0945 µM and 0.0102 µM
- GI50 [30]: 0.0314 µM
- TGI [30]: 0.14 µM and < 0.018 µM
- GI50 [31]: 0.0105 µM
- TGI [31]: 0.0737 µM and 0.0488 µM
- GI50 [32]: 0.02 µM
- TGI [32]: 0.0765 µM and 0.0347 µM
- TGI [60]: 0.141 µM
- TGI [33]: < 0.0174 µM
- TGI [34]: 0.032 µM
- GI50 [35]: 0.0195 µM
- TGI [35]: 0.0639 µM and 0.0512 µM
- GI50 [36]: 0.0677 µM
- TGI [36]: 0.433 µM and 0.0596 µM
- GI50 [37]: 0.0297 µM
- TGI [37]: 0.11 µM and 0.0167 µM
- GI50 [38]: 0.0221 µM
- TGI [38]: 0.0532 µM
- GI50 [39]: 0.027 µM
- TGI [39]: 0.0643 µM and 0.0155 µM
- GI50 [61]: 0.02 µM
- TGI [61]: 0.0538 µM and 0.0152 µM
- GI50 [40]: 0.147 µM
- TGI [40]: 0.644 µM and 0.0965 µM
- GI50 [41]: 0.0178 µM
- TGI [41]: 0.0975 µM and < 0.0122 µM
- GI50 [42]: 0.0303 µM
- TGI [42]: 0.211 µM and 0.0584 µM
- GI50 [43]: 0.0284 µM
- TGI [43]: 0.145 µM and 0.048 µM
- TGI [62]: 0.0407 µM
- GI50 [44]: 0.0003 µM
- TGI [44]: 0.00948 µM and 0.0221 µM
- GI50 [45]: 0.00135 µM
- TGI [45]: 0.017 µM and 0.0557 µM
- TGI [63]: 0.669 µM
- TGI [46]: 0.0301 µM
- GI50 [47]: 0.0138 µM
- TGI [47]: 0.0497 µM and 0.0159 µM
- TGI [48]: 0.0159 µM
- TGI [49]: < 0.0112 µM
- TGI [50]: 0.0384 µM

Compound: O=C1CC2CC(O1)[C@H]1O[C@H]1C2 (stereo partly drawn)
- outcome [1]: inactive
- outcome [3]: inactive
- outcome [4]: inactive
- outcome [51]: inactive
- outcome [5]: inactive
- outcome [6]: inactive
- outcome [64]: inactive
- outcome [7]: inactive
- outcome [8]: inactive
- outcome [9]: inactive
- outcome [10]: inactive
- outcome [11]: inactive
- outcome [12]: inactive
- outcome [13]: inactive
- outcome [14]: inactive
- outcome [53]: inactive
- outcome [15]: inactive
- outcome [16]: inactive
- outcome [17]: inactive
- outcome [18]: inactive
- outcome [19]: inactive
- outcome [55]: inactive
- outcome [20]: inactive
- outcome [21]: inactive
- outcome [22]: inactive
- outcome [23]: inactive
- outcome [24]: inactive
- outcome [25]: inactive
- outcome [26]: inactive
- outcome [27]: inactive
- outcome [28]: inactive
- outcome [29]: inactive
- outcome [30]: inactive
- outcome [31]: inactive
- outcome [32]: inactive
- outcome [33]: inactive
- outcome [34]: inactive
- outcome [35]: inactive
- outcome [36]: inactive
- outcome [37]: inactive
- outcome [38]: inactive
- outcome [40]: inactive
- outcome [41]: inactive
- outcome [42]: inactive
- outcome [43]: inactive
- outcome [62]: inactive
- outcome [44]: inactive
- outcome [45]: inactive
- outcome [47]: inactive
- outcome [48]: inactive
- outcome [49]: inactive
- outcome [50]: inactive

— PubChem BioAssay (NCI)
